Measurements reported in patent publication US9498463B2, “Compound obtained from gamboge resin, and medical uses of the same” (priority 2010, dated 2016).
Converted amounts (≈) assume the structure as drawn. Where two headings read alike, the source gives them in different places.

Legend:
[1] = tested on: Human colon adenocarcinoma cell HT-29; experiment: cells; conditions: for IC50: HT-29, read-out: IC50 (50% inhibition concentration); for CC50: HT-29, read-out: LC50 (50% lethal concentration)
Excerpt: (§1) In Vitro Anti-Cancer Test
(§2) The in vitro anti-cancer test was primarily used to detect the effect of a candidate drug on cancer cell proliferation. The working principle involved therein is the ability of viable cells to shift alamarBlue (AbD Serotec, UK) from its originally non-fluorescent oxidized state (non-fluorescent, blue) to a reduced form (fluorescent, red) having fluorescence via metabolic reaction. According to the fluorescent data result generated by the alamarBlue reagent thus obtained, the proliferation of the viable cells and cell activity can be quantified for detection.
(§3) In the in vitro anti-cancer tests, a candidate drug was tested at 5 different concentrations of 0.01, 0.1, 1, 10, and 100 μg/ml, and six human cancer cell lines and a normal human cell line were used (see Table 5).

[2] = tested on: Human promyelocytic leukemia cell HL-60; experiment: cells; conditions: for CC50: HL-60, read-out: LC50 (50% lethal concentration)
Excerpt: as §1, §2, §3

[3] = tested on: Human histocytic lymphoma cell U937; experiment: cells; conditions: for CC50: U-937, read-out: LC50 (50% lethal concentration)
Excerpt: as §1, §2, §3

[4] = tested on: Human umbilical venal epithelial cell (HUVEC); experiment: cells; conditions: Homo sapiens, HUVEC, read-out: IC50 (50% inhibition concentration)
Excerpt: as §1, §2, §3

in vitro = experiment: in vitro
Excerpt: as §1, §2, §3

[5] = tested on: Human hepatocellular carcinoma cell HepG2; experiment: cells; conditions: for IC50: HepG2, read-out: IC50 (50% inhibition concentration); for CC50: HepG2, read-out: LC50 (50% lethal concentration)
Excerpt: as §1, §2, §3

[6] = tested on: Human lung carcinoma cell A549; experiment: cells; conditions: for CC50: A549, read-out: LC50 (50% lethal concentration)
Excerpt: as §1, §2, §3

[7] = tested on: Human breast adenocarcinoma cell MCF7; experiment: cells; conditions: Homo sapiens; for IC50: MCF7, read-out: IC50 (50% inhibition concentration); for CC50: MCF7, read-out: LC50 (50% lethal concentration)
Excerpt: as §1, §2, §3

[8] = HL-60, read-out: IC50 (50% inhibition concentration)
[9] = U-937, read-out: IC50 (50% inhibition concentration)
[10] = A549, read-out: IC50 (50% inhibition concentration)

Compound	IC50 [1]	CC50 [1]	IC50 [2, 8]	CC50 [2]	IC50 [3, 9]	CC50 [3]	IC50 [4]	CC50 (in vitro)	IC50 [5]	CC50 [5]	IC50 [6, 10]	CC50 [6]	IC50 [7]	CC50 [7]	IC50 ([2]; HL-60, read-out: IC50 (50% inhibition concentration), HL-60)	IC50 ([6]; A549, read-out: IC50 (50% inhibition concentration), A549)	IC50 ([3]; U-937, read-out: IC50 (50% inhibition concentration), U937)
CC(C)=CCC[C@]1(C)C[C@H](O)c2c(O)c3c(c(CC=C(C)C)c2O1)O[C@]12C(=C[C@@H]4CC1C(C)(C)O[C@]2(C/C=C(/C)C(=O)O)C4=O)C3=O [Gh-2641-1, neogambogic acid]	2.6 µg/mL (≈ 4.02 µM)	6.8 µg/mL (≈ 10.5 µM)	0.18 µg/mL (≈ 0.278 µM)	4.5 µg/mL (≈ 6.96 µM)	0.26 µg/mL (≈ 0.402 µM)	1 µg/mL (≈ 1.55 µM)	0.54 µg/mL (≈ 0.835 µM)	4.3 µg/mL (≈ 6.65 µM)	1.7 µg/mL (≈ 2.63 µM)	4.6 µg/mL (≈ 7.11 µM)	0.15 µg/mL (≈ 0.232 µM)	0.22 µg/mL (≈ 0.34 µM)	0.2 µg/mL (≈ 0.309 µM)	3.5 µg/mL (≈ 5.41 µM)			
CC(C)=CCC[C@]1(C)C=Cc2c(O)c3c(c(CC=C(C)C)c2O1)O[C@]12C(=C[C@@H]4CC1C(C)(C)O[C@]2(C/C=C(\C)C(=O)O)C4=O)C3=O [Gh-1641, isogambogic acid]	1.4 µg/mL (≈ 2.23 µM)	4.4 µg/mL (≈ 7 µM)	8 µg/mL (≈ 12.7 µM)	32 µg/mL (≈ 50.9 µM)	9.4 µg/mL (≈ 15 µM)	36 µg/mL (≈ 57.3 µM)	0.18 µg/mL (≈ 0.286 µM)	1.3 µg/mL (≈ 2.07 µM)	0.86 µg/mL (≈ 1.37 µM)	4.5 µg/mL (≈ 7.16 µM)	0.47 µg/mL (≈ 0.748 µM)	3 µg/mL (≈ 4.77 µM)	1.7 µg/mL (≈ 2.7 µM)	33 µg/mL (≈ 52.5 µM)			
CC(C)=CCC/C(C)=C/Cc1c(O)c(CC=C(C)C)c2c(c1O)C(=O)C1=C[C@@H]3CC4C(C)(C)O[C@](C/C=C(\C)C(=O)O)(C3=O)[C@@]14O2 [Gh-2642, isogambogenic acid]	12 µg/mL (≈ 19 µM)	42 µg/mL (≈ 66.6 µM)	9 µg/mL (≈ 14.3 µM)	32 µg/mL (≈ 50.7 µM)	1.3 µg/mL (≈ 2.06 µM)	4.1 µg/mL (≈ 6.5 µM)	2.4 µg/mL (≈ 3.8 µM)	11 µg/mL (≈ 17.4 µM)	11 µg/mL (≈ 17.4 µM)	29 µg/mL (≈ 46 µM)	1.5 µg/mL (≈ 2.38 µM)	4.6 µg/mL (≈ 7.29 µM)	3 µg/mL (≈ 4.76 µM)	10 µg/mL (≈ 15.9 µM)			
CC(C)=CCc1c2c(c(O)c3c1O[C@]14C(=C[C@@H]5CC1C(C)(C)O[C@]4(C/C=C(\C)C=O)C5=O)C3=O)C=CC(C)(C)O2 [Gh-2501, isomorellin]	2.1 µg/mL (≈ 3.86 µM)	4 µg/mL (≈ 7.34 µM)	1 µg/mL (≈ 1.84 µM)	4 µg/mL (≈ 7.34 µM)	0.9 µg/mL (≈ 1.65 µM)	3.1 µg/mL (≈ 5.69 µM)	0.26 µg/mL (≈ 0.477 µM)	1.8 µg/mL (≈ 3.3 µM)	2.2 µg/mL (≈ 4.04 µM)	4.5 µg/mL (≈ 8.26 µM)	0.61 µg/mL (≈ 1.12 µM)	2.1 µg/mL (≈ 3.86 µM)	1.3 µg/mL (≈ 2.39 µM)	3.7 µg/mL (≈ 6.79 µM)			
C=C(C)[C@@H]1CC[C@@]2(C)CC1c1c(O)c3c(c(CC=C(C)C)c1O2)O[C@]12C(=C[C@@H]4CC1C(C)(C)O[C@]2(C/C=C(/C)C(=O)O)C4=O)C3=O [Gh-2603-1, 2-butenoic acid, 2-methyl-4-[(1R,3aS,5S,9S,10R,13S,16aS)-3a,4,5,7,10,11,12,13-octahydro-8-hydroxy-3,3,13-trimethyl-15-(3-methyl-2-butenyl)-10-(1-methylethenyl)-7,18-dioxo-1,5:9,13-dimethano-1H,3H,9H-furo[3.4-g]oxocino[3.2-b]xanthen-1-yl]-,(2Z)-]			1 µg/mL (≈ 1.59 µM)					1.7 µg/mL (≈ 2.7 µM)	1 µg/mL (≈ 1.59 µM)								
C=C(C)C1CC[C@]2(C)C[C@H]1c1c(O)c3c(c(CC=C(C)C)c1O2)O[C@]12C(=C[C@@H]4CC1C(C)(C)OC2(C/C=C(/C)C(=O)O)C4=O)C3=O (stereo partly drawn) [Gh-2603-2, gambogellic acid]								1.7 µg/mL (≈ 2.7 µM)			0.2 µg/mL (≈ 0.318 µM)						
CC(C)=CCC/C(C)=C/Cc1c(O)c(CC=C(C)C)c2c(c1O)C(=O)C1=CC3CC4C(C)(C)O[C@](CC=C(C)C)(C3=O)[C@@]14O2 (stereo in doubt) [Gh-4301, desoxygambogenin]	13 µg/mL (≈ 21.6 µM)	42 µg/mL (≈ 69.9 µM)	3.5 µg/mL (≈ 5.83 µM)	> 100 µg/mL	11 µg/mL (≈ 18.3 µM)	> 100 µg/mL	0.29 µg/mL (≈ 0.483 µM)	1.3 µg/mL (≈ 2.16 µM)	12 µg/mL (≈ 20 µM)	51 µg/mL (≈ 84.9 µM)	0.51 µg/mL (≈ 0.849 µM)	6.2 µg/mL (≈ 10.3 µM)	19 µg/mL (≈ 31.6 µM)	56 µg/mL (≈ 93.2 µM)			
C=C(C)[C@@H]1CC[C@@]2(C)CC1c1c(O)c3c(c(CC=C(C)C)c1O2)O[C@]12C(=C[C@@H]4CC1C(C)(C)O[C@]2(/C=C/C(C)C(=O)O)C4=O)C3=O (stereo partly drawn) [Gh-2507, 3-butenoic acid, 2-methyl-4-[(1R,3aS,5S,9S,10R,13S,16aS)-3a,4,5,7,10,11,12,13-octahydro-8-hydroxy-3,3,13-trimethyl-15-(3-methyl-2-butenyl)-10-(1-methylethenyl)-7,18-dioxo-1,5:9,13-dimethano-1H,3H,9H-furo[3.4-g]oxocino[3.2-b]xanthen-1-yl],(3E)-]	1.6 µg/mL (≈ 2.54 µM)	8.6 µg/mL (≈ 13.7 µM)	0.2 µg/mL (≈ 0.318 µM)	5.3 µg/mL (≈ 8.43 µM)	0.45 µg/mL (≈ 0.716 µM)	2.7 µg/mL (≈ 4.29 µM)	0.41 µg/mL (≈ 0.652 µM)	21 µg/mL (≈ 33.4 µM)	1.7 µg/mL (≈ 2.7 µM)	7.1 µg/mL (≈ 11.3 µM)	0.13 µg/mL (≈ 0.207 µM)	0.53 µg/mL (≈ 0.843 µM)	0.19 µg/mL (≈ 0.302 µM)	2.2 µg/mL (≈ 3.5 µM)			
CC(C)=CCC[C@]1(C)C=Cc2c(O)c3c(c(CC=C(C)C)c2O1)O[C@]12C(=CC4CC1C(C)(C)O[C@]2(C/C=C(/C)C(=O)O)C4=O)C3=O [Gh-2605, gambogic acid]	0.18 µg/mL (≈ 0.286 µM)	0.61 µg/mL (≈ 0.97 µM)	0.17 µg/mL (≈ 0.27 µM)	2.9 µg/mL (≈ 4.61 µM)	0.76 µg/mL (≈ 1.21 µM)	2.9 µg/mL (≈ 4.61 µM)	0.098 µg/mL (≈ 0.156 µM)	1.6 µg/mL (≈ 2.54 µM)	0.23 µg/mL (≈ 0.366 µM)	3.5 µg/mL (≈ 5.57 µM)	0.12 µg/mL (≈ 0.191 µM)	0.37 µg/mL (≈ 0.588 µM)	4.4 µg/mL (≈ 7 µM)	5.9 µg/mL (≈ 9.38 µM)			
CC(C)=CCC[C@@]1(C)C=Cc2c(O)c3c(c(CC=C(C)C)c2O1)O[C@]12C(=C[C@@H]4CC1C(C)(C)O[C@]2(C/C=C(/CO)C(=O)O)C4=O)C3=O [Gh-1602, 30-hydroxyepigambogic acid]								0.94 µg/mL (≈ 1.46 µM)						4 µg/mL (≈ 6.2 µM)	1 µg/mL (≈ 1.55 µM)	0.4 µg/mL (≈ 0.62 µM)	
CC(C)=CCC[C@@]1(C)C=Cc2c(O)c3c(c(CC=C(C)C)c2O1)O[C@]12C(=C[C@@H]4CC1C(C)(C)O[C@]2(C/C=C(/C)C(=O)O)C4=O)C3=O [Gh-2606, epigambogic acid]	0.39 µg/mL (≈ 0.62 µM)	2 µg/mL (≈ 3.18 µM)	0.66 µg/mL (≈ 1.05 µM)	2.4 µg/mL (≈ 3.82 µM)	0.41 µg/mL (≈ 0.652 µM)	3.1 µg/mL (≈ 4.93 µM)	0.11 µg/mL (≈ 0.175 µM)	1.4 µg/mL (≈ 2.23 µM)	0.38 µg/mL (≈ 0.604 µM)	3 µg/mL (≈ 4.77 µM)	0.1 µg/mL (≈ 0.159 µM)	0.31 µg/mL (≈ 0.493 µM)	1.3 µg/mL (≈ 2.07 µM)	1.6 µg/mL (≈ 2.54 µM)			
CC(C)=CCC[C@]1(C)C=Cc2c(O)c3c(c(CC=C(C)C)c2O1)O[C@]12C(=C[C@@H]4CC1C(C)(C)O[C@]2(C/C=C(/CO)C(=O)O)C4=O)C3=O [Gh-1601-A, 30-hydroxygambogic acid]				3 µg/mL (≈ 4.65 µM)				5.4 µg/mL (≈ 8.38 µM)									0.09 µg/mL (≈ 0.14 µM)
CC(C)=CCC[C@@]1(C)C=Cc2c(O)c3c(c(CC=C(C)C)c2O1)O[C@]12C(=C[C@@H]4CC1C(C)(C)O[C@]2(C/C=C(\C)C(=O)O)C4=O)C3=O [Gh-1642, epiisogambogic acid]	1.9 µg/mL (≈ 3.02 µM)	4.8 µg/mL (≈ 7.63 µM)	6 µg/mL (≈ 9.54 µM)	35 µg/mL (≈ 55.7 µM)	8.8 µg/mL (≈ 14 µM)	33 µg/mL (≈ 52.5 µM)	0.18 µg/mL (≈ 0.286 µM)	1.3 µg/mL (≈ 2.07 µM)	1.1 µg/mL (≈ 1.75 µM)	5.3 µg/mL (≈ 8.43 µM)	0.51 µg/mL (≈ 0.811 µM)	2.8 µg/mL (≈ 4.45 µM)	2.4 µg/mL (≈ 3.82 µM)	29 µg/mL (≈ 46.1 µM)			
